US20130005747A1, “METHOD FOR SELECTING A CANCER THERAPY” (Cyclacel Limited, priority 2010, published 2013)

Columns and labels:
Assay in all cases: Fractional growth, 72 h seliciclib
Type in all cases: cell-based, human
T47D = T47D (Breast), 15 μM seliciclib
Description: (§1) A total of 270 human cancer cell lines from diverse cancer histopathologic types were investigated.

HMVII = HMVII (Skin), 15 μM seliciclib
Description: as §1

CAL-29 = CAL-29 (Bladder), 15 μM seliciclib
Description: as §1

HSC-2 = HSC-2 (Head & Neck), 15 μM seliciclib
Description: as §1

NCI-H520 = NCI-H520 (Lung: NSCLC), 15 μM seliciclib
Description: as §1

HARA = HARA (Lung: NSCLC), 15 μM seliciclib
Description: as §1

GAMG = GAMG (Brain), 15 μM seliciclib
Description: as §1

RERF-GC-1B = RERF-GC-1B (Stomach), 15 μM seliciclib
Description: as §1

CAL-12T = CAL-12T (Lung: NSCLC), 15 μM seliciclib
Description: as §1

C32 = C32 (Skin), 15 μM seliciclib
Description: as §1

KP-1N = KP-1N (Pancreas), 15 μM seliciclib
Description: as §1

MGH-MC-1 = MGH-MC-1 (Skin), 15 μM seliciclib
Description: as §1

LCLC-103H = LCLC-103H (Lung: NSCLC), 15 μM seliciclib
Description: as §1

CAL-33 = CAL-33 (Head & Neck), 15 μM seliciclib
Description: as §1

GCT = GCT (Miscellaneous), 15 μM seliciclib
Description: as §1

NCI-H1793 = NCI-H1793 (Lung: NSCLC), 15 μM seliciclib
Description: as §1

B-CPAP = B-CPAP (Thyroid), 15 μM seliciclib
Description: as §1

IGROV-1 = IGROV-1 (Ovary), 15 μM seliciclib
Description: as §1

GTL-16 = GTL-16 (Stomach), 15 μM seliciclib
Description: as §1

NCI-H1792 = NCI-H1792 (Lung: NSCLC), 15 μM seliciclib
Description: as §1

Caki-1 = Caki-1 (Kidney), 15 μM seliciclib
Description: as §1

CS1R = CS1R (Bone), 15 μM seliciclib
Description: as §1

DAN-G = DAN-G (Pancreas), 15 μM seliciclib
Description: as §1

A549 = A549 (Lung: NSCLC), 15 μM seliciclib
Description: as §1

MDA-MB-231 = MDA-MB-231 (Breast), 15 μM seliciclib
Description: as §1

BxPC-3 = BxPC-3 (Pancreas), 15 μM seliciclib
Description: as §1

HPAC = HPAC (Pancreas), 15 μM seliciclib
Description: as §1

AZ-521 = AZ-521 (Stomach), 15 μM seliciclib
Description: as §1

8505C = 8505C (Thyroid), 15 μM seliciclib
Description: as §1

KP-4 = KP-4 (Pancreas), 15 μM seliciclib
Description: as §1

MEL-JUSO = MEL-JUSO (Skin), 15 μM seliciclib
Description: as §1

NCI-H2122 = NCI-H2122 (Lung: NSCLC), 15 μM seliciclib
Description: as §1

LU99A = LU99A (Lung: NSCLC), 15 μM seliciclib
Description: as §1

NCI-H1299 = NCI-H1299 (Lung: NSCLC), 15 μM seliciclib
Description: as §1

COR-L23 = COR-L23 (Lung: NSCLC), 15 μM seliciclib
Description: as §1

VM-CUB1 = VM-CUB1 (Bladder), 15 μM seliciclib
Description: as §1

GP5d = GP5d (Intestine), 15 μM seliciclib
Description: as §1

Compound: CC[C@H](CO)Nc1nc(NCc2ccccc2)c2ncn(C(C)C)c2n1 [seliciclib, roscovitine]
- Fractional Growth (T47D): 0.6314
- Fractional Growth (HMVII): 0.4646
- Fractional Growth (CAL-29): 0.5744
- Fractional Growth (HSC-2): 0.5464
- Fractional Growth (NCI-H520): 0.6863
- Fractional Growth (HARA): 0.6182
- Fractional Growth (GAMG): 0.571
- Fractional Growth (RERF-GC-1B): 0.6411
- Fractional Growth (CAL-12T): 0.3472
- Fractional Growth (C32): 0.5391
- Fractional Growth (KP-1N): 0.6045
- Fractional Growth (MGH-MC-1): 0.4543
- Fractional Growth (LCLC-103H): 0.5051
- Fractional Growth (CAL-33): 0.6834
- Fractional Growth (GCT): 0.4799
- Fractional Growth (NCI-H1793): 0.6274
- Fractional Growth (B-CPAP): 0.5754
- Fractional Growth (IGROV-1): 0.4776
- Fractional Growth (GTL-16): 0.6482
- Fractional Growth (NCI-H1792): 0.4649
- Fractional Growth (Caki-1): 0.3885
- Fractional Growth (CS1R): 0.2923
- Fractional Growth (DAN-G): 0.6841
- Fractional Growth (A549): 0.1925
- Fractional Growth (MDA-MB-231): 0.4643
- Fractional Growth (BxPC-3): 0.671
- Fractional Growth (HPAC): 0.7062
- Fractional Growth (AZ-521): 0.5115
- Fractional Growth (8505C): 0.4214
- Fractional Growth (KP-4): 0.5607
- Fractional Growth (MEL-JUSO): 0.4945
- Fractional Growth (NCI-H2122): 0.1093
- Fractional Growth (LU99A): 0.0948
- Fractional Growth (NCI-H1299): 0.3352
- Fractional Growth (COR-L23): 0.2341
- Fractional Growth (VM-CUB1): 0.3307
- Fractional Growth (GP5d): 0.7382
